Experimental findings from EP4818157A1, “N-SUBSTITUTED CYCLIC AMIDE COMPOUND” (Kissei Pharmaceutical Co., Ltd., priority 2023, dated 2025) are described below.

Structures are written as SMILES.

The assay deals with T1, human TSHR (Homo sapiens, UniProt P16473).
T1 construct: expressed in transfected cells
T1 sequence (P16473 21-764): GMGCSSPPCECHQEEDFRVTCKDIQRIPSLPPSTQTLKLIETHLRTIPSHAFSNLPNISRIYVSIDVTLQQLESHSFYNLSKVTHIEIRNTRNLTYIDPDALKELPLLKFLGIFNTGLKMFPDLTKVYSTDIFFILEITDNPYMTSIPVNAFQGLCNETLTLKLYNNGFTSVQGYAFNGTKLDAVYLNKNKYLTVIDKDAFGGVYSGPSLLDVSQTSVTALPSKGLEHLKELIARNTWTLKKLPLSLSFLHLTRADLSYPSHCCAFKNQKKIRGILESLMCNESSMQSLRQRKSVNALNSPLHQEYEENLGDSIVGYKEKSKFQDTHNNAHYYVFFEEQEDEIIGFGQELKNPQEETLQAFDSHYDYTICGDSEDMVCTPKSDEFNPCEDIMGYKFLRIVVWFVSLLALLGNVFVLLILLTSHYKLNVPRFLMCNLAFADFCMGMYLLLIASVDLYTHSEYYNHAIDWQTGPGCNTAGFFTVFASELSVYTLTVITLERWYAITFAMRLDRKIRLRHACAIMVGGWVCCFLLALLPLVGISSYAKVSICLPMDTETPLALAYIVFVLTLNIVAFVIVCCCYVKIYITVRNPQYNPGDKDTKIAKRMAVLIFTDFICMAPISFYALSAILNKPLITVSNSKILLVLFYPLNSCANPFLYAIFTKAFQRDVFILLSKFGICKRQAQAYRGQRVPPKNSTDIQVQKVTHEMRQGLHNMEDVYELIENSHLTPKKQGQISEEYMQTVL
Nature of the assay: Measurement of antagonist activity using TSH-induced cAMP production in human TSHR-stably expressing CHO cells. The following applies: human TSH final concentration 50 ng/mL. The assay is classed as cell-based. On the procedure: Measurement of Antagonist Activity Using TSH-induced cAMP Production in Human TSHR-stably Expressing CHO Cells as an Indicator
A gene sequence of human TSHR (reference number NM_000369.2) was inserted into a multiple cloning site of pcDNA3.1(+). The prepared plasmid vector was introduced into CHO cells by a lipofection method to establish human TSHR stably expressing CHO cells. The obtained cells were seeded in a poly-D-lysine-coated 96-well plate at 5 x 10^4 cells/well, and cultured for 1 day in F12 medium containing 10% FBS, 400 µg/mL G418, 50 U/mL penicillin, and 50 µg/mL streptomycin under conditions of 37°C and 5% CO2. After removing a medium, the cells were washed twice with 100 µL per well of an assay buffer (Hanks' Balanced Salt Solution containing 20 mM HEPES and 1 mM IBMX). 30 µL of an assay buffer containing a test compound was added to a well, and the mixture was incubated at room temperature for 15 minutes. Next, 30 µL of an assay buffer containing human TSH (R&D Systems, Inc., final concentration 50 ng/mL) was added, and the mixture was incubated at 37°C for 1 hour. The supernatant was removed, and Lysis and Detection Buffer 2 (Cisbio) was added to prepare a cell lysate by incubating at room temperature for 1 hour. According to the instructions for use of a cAMP Gs HiRange kit (Cisbio), a cell lysate was reacted with d2-labeled cAMP and an anti-cAMP Europium Cryptate labeled antibody (Cisbio) in a 384-well white microplate. Next, a fluorescence intensity ratio (measurement wavelengths 665 nm/620 nm) was measured using a multiplate reader (PHERAstar FSX, BMG LABTECH Japan). A fluorescence intensity ratio of each sample was converted into a cAMP content using a standard curve. A cAMP content was converted into a percentage of a control value, and a cAMP production rate was calculated. Using Prism (Graph Pad Software Inc.), a cAMP production rate was plotted against a test compound concentration, and an IC50 value was calculated. The IC50 of each test compound is shown in the above tables. In the tables, IC50 < 3.0 µM was denoted as A, and 3.0 µM ≤ IC50 < 30 µM was denoted as B. The case where activity was observed but an IC50 value could not be calculated was denoted as C.
Background: Cyclic AMP is a second messenger, typically raised through Gs and lowered through Gi signalling.
For orientation: IC50 means the concentration that inhibits the measured activity by half. Read a high IC50 as a need for much substance. Consider `C[C@@H]1CC[C@@H](NC(N)=O)C(=O)N1Cc1cc(Br)ccc1F` (relative stereo) [Example A-1, 1-((3R^*,6R^*)-1-(5-bromo-2-fluorobenzyl)-6-methyl-2-oxopiperidin-3-yl)urea], for which the IC50 was 3 to 30 µM.
For `C[C@@H]1CC[C@@H](NC(N)=O)C(=O)N1Cc1cc(C(F)F)ccc1F` (relative stereo) [Example A-2, 1-((3R^*,6R^*)-1-(5-(difluoromethyl)-2-fluorobenzyl)-6-methyl-2-oxopiperidin-3-yl)urea] the value was less than 3 µM; for `C[C@@H]1CC[C@@H](NC(N)=O)C(=O)N1Cc1cc(C(F)(F)F)cc(Cl)c1F` (relative stereo) [Example A-3, 1-((3R^*,6R^*)-1-(3-chloro-2-fluoro-5-(trifluoromethyl)benzyl)-6-methyl-2-oxopiperidin-3-yl)urea], less than 3 µM; for `C[C@@H]1CC[C@@H](NC(N)=O)C(=O)N1Cc1cc(-c2ccccc2)ccc1F` (relative stereo) [Example A-4, 1-((3R^*,6R^*)-1-((4-fluoro-[1,1'-biphenyl]-3-yl)methyl)-6-methyl-2-oxopiperidin-3-yl)urea], 3 to 30 µM.
The result for `C[C@@H]1CC[C@@H](NC(N)=O)C(=O)N1Cc1cc(Cc2ccccc2)ccc1F` (relative stereo) [Example A-5, 1-((3R^*,6R^*)-1-(5-benzyl-2-fluorobenzyl)-6-methyl-2-oxopiperidin-3-yl)urea] reads less than 3 µM; that for `C[C@@H]1CC[C@@H](NC(N)=O)C(=O)N1Cc1cccc(Oc2ccccc2)c1` (relative stereo) [Example A-6, 1-((3R^*,6R^*)-6-methyl-2-oxo-1-(3-phenoxybenzyl)piperidin-3-yl)urea], 3 to 30 µM; that for `C[C@@H]1CC[C@@H](NC(N)=O)C(=O)N1Cc1cc(C#Cc2ccccc2)ccc1F` (relative stereo) [Example A-7, 1-((3R^*,6R^*)-1-(2-fluoro-5-(phenylethynyl)benzyl)-6-methyl-2-oxopiperidin-3-yl)urea], less than 3 µM.
The result for `C[C@@H]1CC[C@@H](NC(N)=O)C(=O)N1Cc1cc(C#Cc2ccncc2)ccc1F` (relative stereo) [Example A-8, 1-((3R^*,6R^*)-1-(2-fluoro-5-(pyridin-4-ylethynyl)benzyl)-6-methyl-2-oxopiperidin-3-yl)urea] reads less than 3 µM.
As to `C[C@@H]1CC[C@@H](NC(N)=O)C(=O)N1Cc1cc(C#Cc2cccnc2)ccc1F` (relative stereo) [Example A-9, 1-((3R^*,6R^*)-1-(2-fluoro-5-(pyridin-3-ylethynyl)benzyl)-6-methyl-2-oxopiperidin-3-yl)urea], the IC50 is less than 3 µM.
Compound `C[C@@H]1CC[C@@H](NC(N)=O)C(=O)N1Cc1cc(C#CC2CC2)ccc1F` (relative stereo) [Example A-10, 1-((3R^*,6R^*)-1-(5-(cyclopropylethynyl)-2-fluorobenzyl)-6-methyl-2-oxopiperidin-3-yl)urea] yielded an IC50 of 3 to 30 µM.
For `C[C@@H]1CC[C@@H](NC(N)=O)C(=O)N1Cc1cc(OCc2ccccc2)ccc1F` (relative stereo) [Example A-11, 1-((3R^*,6R^*)-1-(5-(benzyloxy)-2-fluorobenzyl)-6-methyl-2-oxopiperidin-3-yl)urea] the value was less than 3 µM; for `C[C@@H]1CC[C@@H](NC(N)=O)C(=O)N1Cc1cc(CCc2ccccc2)ccc1F` (relative stereo) [Example A-12, 1-((3R^*,6R^*)-1-(2-fluoro-5-phenethylbenzyl)-6-methyl-2-oxopiperidin-3-yl)urea], less than 3 µM; for `CC(C)(C)OC(=O)NCC[C@@H]1C[C@H](NC(N)=O)C(=O)N(Cc2cc(C(F)(F)F)ccc2F)C1` (relative stereo) [Example A-19, tert-butyl (2-((3R*,5S*)-1-(2-fluoro-5-(trifluoromethyl)benzyl)-6-oxo-5-ureidopiperidin-3-yl)ethyl)carbamate], less than 3 µM.
For `NC(=O)N[C@@H]1C[C@H]2C[C@H]2N(Cc2cc(C(F)(F)F)ccc2F)C1=O` (relative stereo) [Example A-21, 1-((1R^*,4R^*,6S^*)-2-(2-fluoro-5-(trifluoromethyl)benzyl)-3-oxo-2-azabicyclo[4.1.0]heptan-4-yl)urea] the value was less than 3 µM; for `C[C@H]1CC[C@@H](NC(N)=O)C(=O)N1CCc1cccc(C(F)(F)F)c1` (relative stereo) [Example A-23, 1-((3R^*,6S^*)-6-methyl-2-oxo-1-(3-(trifluoromethyl)phenethyl)piperidin-3-yl)urea], 3 to 30 µM; for `NC(=O)N[C@@H]1C[C@@H]2CCCC[C@H]2N(Cc2cccc(C(F)(F)F)c2)C1=O` (relative stereo) [Example A-29, 1-((3R^*,4aS^*,8aR^*)-(2-oxo-1-(3-(trifluoromethyl)benzyl)decahydroquinolin-3-yl)urea], greater than 30 µM.
The result for `CN(C)C(=O)C[C@@H]1CC[C@@H](NC(N)=O)C(=O)N1Cc1cc(C(F)(F)F)ccc1F` (relative stereo) [Example D-10, 2-((2S^*,5R^*)-1-(2-fluoro-5-(trifluoromethyl)benzyl)-6-oxo-5-ureidopiperidin-2-yl)-N,N-dimethylacetamide] reads greater than 30 µM; that for `C[C@@H]1CC[C@@H](NC(N)=O)C(=O)N1Cc1cc(C(F)(F)F)ccc1F` [Example A-13, 1-((3R,6R)-1-(2-fluoro-5-(trifluoromethyl)benzyl)-6-methyl-2-oxopiperidin-3-yl)urea], less than 3 µM; that for `NC(=O)N[C@@H]1CC[C@@H](C(F)(F)F)N(Cc2cc(C(F)(F)F)ccc2F)C1=O` [Example A-14, 1-((3R,6S)-1-(2-fluoro-5-(trifluoromethyl)benzyl)-2-oxo-6-(trifluoromethyl)piperidin-3-yl)urea], less than 3 µM.
`NC(=O)N[C@@H]1CC[C@@H](C(F)(F)F)N(Cc2cc(C(F)F)ccc2F)C1=O` [Example A-15, 1-((3R,6S)-1-(5-(difluoromethyl)-2-fluorobenzyl)-2-oxo-6-(trifluoromethyl)piperidin-3-yl)urea] had an IC50 of less than 3 µM.
The result for `NC(=O)N[C@@H]1CC[C@@H](C(F)(F)F)N(Cc2cc(OC(F)(F)C(F)F)ccc2F)C1=O` [Example A-16, 1-((3R,6S)-1-(2-fluoro-5-(1,1,2,2-tetrafluoroethoxy)benzyl)-2-oxo-6-(trifluoromethyl)piperidin-3-yl)urea] reads less than 3 µM.
The result for `NC(=O)N[C@@H]1CC[C@@H](C(F)F)N(Cc2cc(C(F)(F)F)ccc2F)C1=O` [Example A-17, 1-((3R,6S)-6-(difluoromethyl)-1-(2-fluoro-5-(trifluoromethyl)benzyl)-2-oxopiperidin-3-yl)urea] reads less than 3 µM.
The result for `NC(=O)N[C@@H]1C[C@H](F)CN(Cc2cc(C(F)(F)F)ccc2F)C1=O` [Example A-18, 1-((3R,5S)-5-fluoro-1-(2-fluoro-5-(trifluoromethyl)benzyl)-2-oxopiperidin-3-yl)urea] reads greater than 30 µM.
On to `NC(=O)NC1CCC2(CC2)N(Cc2cccc(C(F)(F)F)c2)C1=O` (centres unmarked) [Example A-20, 1-(5-oxo-4-(3-(trifluoromethyl)benzyl)-4-azaspiro[2.5]octan-6-yl)urea], for which the IC50 was 3 to 30 µM.
The result for `CC(c1cc(C(F)(F)F)ccc1F)N1C(=O)[C@H](NC(N)=O)CC[C@H]1C(F)(F)F` (stereo partly drawn) [Example A-22, 1-((3R,6S)-1-(1-(2-fluoro-5-(trifluoromethyl)phenyl)ethyl)-2-oxo-6-(trifluoromethyl)piperidin-3-yl)urea] reads greater than 30 µM.
For `CNC(=O)N[C@@H]1CC[C@@H](C(F)(F)F)N(Cc2cc(C(F)(F)F)ccc2F)C1=O` [Example A-24, 1-((3R,6S)-1-(2-fluoro-5-(trifluoromethyl)benzyl)-2-oxo-6-(trifluoromethyl)piperidin-3-yl)-3-methylurea] the value was less than 3 µM; for `CO[C@@H](C)C(=O)N[C@@H]1CC[C@@H](C(F)(F)F)N(Cc2cc(C(F)(F)F)ccc2F)C1=O` [Example A-25, (S)-N-((3R,6S)-1-(2-fluoro-5-(trifluoromethyl)benzyl)-2-oxo-6-(trifluoromethyl)piperidin-3-yl)-2-methoxypropanamide], greater than 30 µM.
For `O=C(NC1CC1)N[C@@H]1CC[C@@H](C(F)F)N(Cc2cc(C(F)(F)F)ccc2F)C1=O` [Example A-26, 1-cyclopropyl-3-((3R,6S)-6-(difluoromethyl)-1-(2-fluoro-5-(trifluoromethyl)benzyl)-2-oxopiperidin-3-yl)urea] the value was 3 to 30 µM; for `CC(=O)N[C@@H]1CC[C@@H](C(F)F)N(Cc2cc(C(F)(F)F)ccc2F)C1=O` [Example A-27, N-((3R,6S)-6-(difluoromethyl)-1-(2-fluoro-5-(trifluoromethyl)benzyl)-2-oxopiperidin-3-yl)acetamide], 3 to 30 µM.
